Earlier results as cited in PMC11206399, “In Vitro/In Vivo Correlation of Two Extended-Release Cilostazol Formulations” (Pharmaceuticals, 2024).
Values after ≈ are worked out from the molar mass of the structure shown. One block for each compound: values may come before it.

Legend:
[1] = parameters: method as in PMID 4074422
[2] = parameters: method as in PMID 10702883; conditions: humans, oral 100 mg Cilostazol tablet
Caco-2 cell monolayer = tested on: Caco-2 cell monolayer; parameters: method as in PMID 14603510; conditions: Caco-2 cell monolayer model
platelet aggregation = tested on: platelet aggregation; parameters: method as in doi:10.1111/j.1527-3466.1993.tb00200.x

water solubility [1]: 3.34 µg/mL (≈ 9.04 µM)
increase of AUC of Cilostazol with high-fat breakfast compared with the fasted condition [2]: 25%
increase of Cmax of Cilostazol with high-fat breakfast compared with the fasted condition [2]: 90%
permeability coefficient (Caco-2 cell monolayer): above 1 × 10^−6 cm/s
SMILES: O=C1CCc2cc(OCCCCc3nnnn3C3CCCCC3)ccc2N1 [Cilostazol]

SMILES: O=c1ccc2cc(OCCCCc3nnnn3C3CCCCC3)ccc2[nH]1 [OPC-13015, 3,4-dehydrocilostazol]
potency of inhibiting platelet aggregation compared with cilostazol (platelet aggregation): 3 fold

SMILES: O=C1CCc2cc(OCCCCc3nnnn3[C@H]3CC[C@H](O)CC3)ccc2N1 [OPC-13213, 4′-trans-hydroxy-cilostazol]
fold less potent than Cilostazol (inhibiting platelet aggregation) (platelet aggregation): 3 fold
